How the values were obtained:
MIA PaCa-2 cells [1] = assay: In-vitro anti-proliferative activity in combination with gemcitabine (GMC) on MIA PaCa-2 cells; format: cell-based
Protocol: Example 73. In-Vitro Anti-Proliferative Activity of the Compounds of the Present Invention in Combination with Gemcitabine (GMC) on MIA PaCa-2 Cells
(§1) MIA PaCa-2 cells were seeded on a 384-well plate at 3000 cells/well, and 20 nM gemcitabine was added. After overnight adherence culture, DMSO or the compounds serially diluted 1:5 from 100 nM were added. The viability was assessed 72 h after dosing by measuring the intracellular ATP content. The inhibition percentage of viable cells by the compounds was calculated by comparing with the DMSO group, and the IC50 value was calculated.

MIA PaCa-2 cells [2] = assay: In-vitro anti-proliferative activity on MIA PaCa-2 cells (intracellular ATP content); format: cell-based; conditions: compound alone, 72 h after dosing, read-out: IC50 Without GMC, anti-proliferative activity on MIA PaCa-2 cells
Protocol: Example 72. In-Vitro Anti-Proliferative Activity of the Compounds of the Present Invention on MIA PaCa-2 Cells
as §1, with “cells/well.” for “cells/well, and 20 nM gemcitabine was added.”, “5 μM” for “100 nM”

Wee-1 kinase = Wee-1 kinase (Homo sapiens (Human), UniProt P30291); assay: Inhibitory activity against Wee-1 kinase (ADP-GLO chemiluminescence); format: biochemical; conditions: 60 min reaction at room temperature
Protocol: Example 71. Assay of Inhibitory Activity of Compounds of the Present Invention Against Wee-1 Kinase
After the serially diluted compound and an enzyme were mixed, the mixture was incubated at room temperature (25° C.) for 15 min, and then centrifuged at 1000 rpm for 1 min for mixing. 5 μL of substrate was added to start the reaction. After the mixture was reacted at room temperature for 60 min, 5 μL of ADP-GLO reagent was added and the mixture was centrifuged at 1000 rpm for 1 min for mixing. The mixture was subsequently incubated at room temperature for 60 min, and then 10 μL of kinase detection reagent was added. The mixture was incubated for 60 min, and the chemiluminescence was determined. The inhibition percentage of the enzyme activity by the compounds was calculated compared with the DMSO group, and the IC50 values were also calculated.

[3] = read-out: IC50 GMC (20 nM), anti-proliferative activity on MIA PaCa-2 cells, in combination with 20 nM gemcitabine, 72 h after dosing, ATP content
[4] = Homo sapiens, MIA PaCa-2, 72 h, read-out: IC50 GMC (20 nM), anti-proliferative activity on MIA PaCa-2 cells, in combination with 20 nM gemcitabine, 72 h after dosing, ATP content

Sequence of Wee-1 kinase (P30291 whole entry): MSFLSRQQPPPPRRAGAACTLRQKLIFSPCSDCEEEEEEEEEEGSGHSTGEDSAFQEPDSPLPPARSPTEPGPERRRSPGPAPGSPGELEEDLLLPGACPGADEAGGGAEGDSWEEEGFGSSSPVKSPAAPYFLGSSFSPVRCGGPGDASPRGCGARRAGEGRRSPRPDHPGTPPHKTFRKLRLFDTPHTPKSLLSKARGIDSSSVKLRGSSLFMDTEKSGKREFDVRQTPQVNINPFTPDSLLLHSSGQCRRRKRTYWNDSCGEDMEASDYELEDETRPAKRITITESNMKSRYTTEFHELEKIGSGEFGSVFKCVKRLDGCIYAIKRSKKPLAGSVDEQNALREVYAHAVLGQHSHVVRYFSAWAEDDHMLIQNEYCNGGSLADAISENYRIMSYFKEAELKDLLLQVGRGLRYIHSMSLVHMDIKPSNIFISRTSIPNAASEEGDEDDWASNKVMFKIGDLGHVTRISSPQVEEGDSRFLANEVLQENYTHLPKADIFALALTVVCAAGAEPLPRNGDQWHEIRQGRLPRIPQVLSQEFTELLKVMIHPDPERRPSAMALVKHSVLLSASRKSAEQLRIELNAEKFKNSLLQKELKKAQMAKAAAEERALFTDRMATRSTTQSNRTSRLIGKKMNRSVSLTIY

Structure (SMILES)	IC50 (MIA PaCa-2 cells [1]; [3]) [nM]	IC50 (MIA PaCa-2 cells [2]) [nM]	IC50 (Wee-1 kinase) [nM]	IC50 (MIA PaCa-2 cells [1]; [4]) [nM]	IC50 (MIA PaCa-2 cells [2]; Homo sapiens, MIA PaCa-2, 72 h) [nM]
CN1Cc2cc(Nc3ncc4c(F)cn(-c5cccc(N=S(C)(C)=O)n5)c4n3)cc3c2C(CCC3)C1 (stereo not drawn) [Compound 1]	1.7	37	< 2		
CCS(=O)(CC)=Nc1cccc(-n2cc(F)c3cnc(Nc4cc5c6c(c4)CN(C)CC6CCC5)nc32)n1 (stereo not drawn) [Compound 2]			1.96	2.4	106
CN1Cc2cc(Nc3ncc4c(F)cn(-c5cccc(N=S6(=O)CCC6)n5)c4n3)cc3c2C(CCC3)C1 (stereo not drawn) [Compound 3]			2.48	2.3	128
CN1Cc2cc(Nc3ncc4c(F)cn(-c5cccc(N=S6(=O)CCCC6)n5)c4n3)cc3c2C(CCC3)C1 (stereo not drawn) [Compound 4]			2.47	2.1	115
CN1Cc2cc(Nc3ncc4c(F)cn(-c5cccc(N=S6(=O)CCOCC6)n5)c4n3)cc3c2C(CCC3)C1 (stereo not drawn) [Compound 5]	2.4	139	2.79		
CN1Cc2cc(Nc3ncc4c(F)cn(-c5cccc(P(C)(C)=O)n5)c4n3)cc3c2C(CCC3)C1 (stereo not drawn) [Compound 14]			2.71	1.3	331
[2H]C([2H])([2H])S(=O)(=Nc1cccc(-n2cc(F)c3cnc(Nc4cc5c6c(c4)CN(C)CC6CCC5)nc32)n1)C([2H])([2H])[2H] (stereo not drawn) [Compound 21]			1.67	1.7	85
CN1Cc2cc(Nc3ncc4c(F)cn(-c5ccc(F)c(N=S(C)(C)=O)n5)c4n3)cc3c2C(CCC3)C1 (stereo not drawn) [Compound 23]	1.2		2.05		155
CN1Cc2cc(Nc3ncc4c(F)cn(-c5ccc(Cl)c(N=S(C)(C)=O)n5)c4n3)cc3c2C(CCC3)C1 (stereo not drawn) [Compound 24]			2.49	1.6	184
CCN1Cc2cc(Nc3ncc4c(C)cn(-c5cccc(N=S(C)(C)=O)n5)c4n3)cc3c2C(CCC3)C1 (stereo not drawn) [Compound 28]			2.33	1.3	172
CN1Cc2cc(Nc3ncc4c(F)cn(-c5cccc(N=S(C)(C)=O)n5)c4n3)cc3c2C(CCC3)C1 (stereo not drawn) [Compound 63]		173	3.47	2.3	
CN1Cc2cc(Nc3ncc4c(F)cn(-c5ccc(F)c(N=S(C)(C)=O)n5)c4n3)cc3c2C(CCC3)C1 (stereo not drawn) [Compound 64]	2.5	179	3.36		
CN1Cc2cc(Nc3ncc4c(F)cn(-c5ccc(F)c(N=S(C)(C)=O)n5)c4n3)cc3c2[C@H](CCC3)C1 [Compound 65]			1.56	1.4	78
CN1Cc2cc(Nc3ncc4c(F)cn(-c5cccc(N=S(C)(C)=O)n5)c4n3)cc3c2[C@H](CCC3)C1 [Compound 66]	0.9		1.19	< 1	28
[2H]C([2H])([2H])N1Cc2cc(Nc3ncc4c(F)cn(-c5cccc(N=S(C)(C)=O)n5)c4n3)cc3c2[C@H](CCC3)C1 [Compound 67]	0.8		1.86	< 1	49
[2H]C([2H])([2H])N1Cc2cc(Nc3ncc4c(F)cn(-c5ccc(F)c(N=S(C)(C)=O)n5)c4n3)cc3c2[C@H](CCC3)C1 [Compound 68]	0.9		1.97	< 1	76
[2H]C([2H])([2H])S(=O)(=Nc1cccc(-n2cc(F)c3cnc(Nc4cc5c6c(c4)CN(C)C[C@H]6CCC5)nc32)n1)C([2H])([2H])[2H] [Compound 69]			1.54		
[2H]C([2H])([2H])S(=O)(=Nc1nc(-n2cc(F)c3cnc(Nc4cc5c6c(c4)CN(C)C[C@H]6CCC5)nc32)ccc1F)C([2H])([2H])[2H] [Compound 70]			1.84	1.1	89
C=CCn1c(=O)c2cnc(Nc3ccc(N4CCN(C)CC4)cc3)nc2n1-c1cccc(C(C)(C)O)n1 [MK-1775, reference compound]				24.2	904
